# Assay results: patent US20120052010A1, “IMAGING TUMOR PERFUSION, OXIDATIVE […] DYNAMIC ACE PET IN PATIENTS WITH HEAD AND NECK CANCER DURING RADIOTHERAPY” (GE HEALTHCARE LIMITED, priority 2009, published 2012)
# Several values for one entry are separate records, joined by “and”; a condition that tells them apart may be missing. Identical values can stand only once.
# Experiments:
# [1] = resting normal volunteers, myocardial O2 consumption 3-4 micromole/min/gram; cited from earlier work
# [2] = system: primary tumor, squamous cell carcinoma of the head and neck; experiment: Dynamic ACE PET, tumor clearance rate of [11C] (tumor oxidative metabolism, OXm); type: in vivo, human
# Protocol: Twenty nine dynamic ACE PET scans were performed in the nine patients. Five patients were scanned with a dedicated PET device (Siemens ECAT HR^+, Knoxyille, Tenn., USA) and PET images were coregistered to dose-planning CT images for anatomical localization. Four patients were scanned with a hybrid PET-CT device (GE Discovery ST, Milwaukee, Wis., USA). ACE PET was studied in all patients within 7 days before the start of radiotherapy (baseline). Due to logistic problems not all patients could be scanned at all subsequent time points. Five patients were scanned after a mean dose of 15 Gy (dose range 9.6-20Gy), 7 patients after a mean dose of 30 Gy (range 24-37Gy) and 8 patients after a mean dose of 55 Gy (range 42-68Gy).
# (§1) Ten minutes after the heart scan, the head and neck region was imaged immediately after an intravenous bolus injection of 10 MBq/kg body weight ACE. The scan time was 32 minutes with time frames 12×5 seconds (s), 6×10 s, 4×30 s, 4×60 s, 2×120 s and […].
# Primary tumors were clearly visualized in all scans. A time-activity curve (TAC) of the primary tumor was obtained from a region of interest (ROI) delineating the highest uptake in all ACE scans. TACs were analyzed by fitting an exponential curve to the data collected between 4 and 32 min Tumor oxidative metabolism was derived from the below equation.
# where Y is the tumor radioactivity (Bq/cc), A is a constant, t is time (min), and OXm is the clearance rate of [^11C] in min^−1. The average R^2 of the fit was 0.93.
# [3] = system: primary tumor, squamous cell carcinoma of the head and neck; experiment: Dynamic ACE PET, tumor perfusion (absolute extraction rate and relative perfusion index rF); type: in vivo, human
# Protocol: In a subset of ACE scan sessions (n=23) an image-derived arterial input function for absolute quantification of tumor perfusion was acquired by dynamic imaging of the heart immediately after injection of a 0.5 MBq/kg body weight ACE bolus.
# as §1
# The arterial blood input function was derived by placing a small ROI in the left ventricular cavity of the heart scan to obtain a TAC of the first pass of the bolus. Arterial blood activities were integrated by the area-under-the-curve of the first bolus passage through the chamber and normalized to the injected dose of the subsequent tumor scan.
# The peak activity of the primary tumor deposited at the end of the first bolus pass was assessed. The absolute extraction rate (in mL/min/mL tissue) was calculated by dividing the first-pass peak tumor activity by the arterial blood integral, assuming that systemic circulation was unaltered between the heart and tumor scan. As the arterial input was not obtained in all sessions, a relative perfusion index (rF) was quantified by the ratio of initial peak retention in the tumor to that of the cerebellum. […] Absolute quantification of tumor perfusion in 23 scans yielded a mean of 0.47±0.01 mL/min/mL The mean of simultaneous rF measurements was 5.87±0.39 and the two methods were linearly correlated (r=0.57, p=0.005).
# [4] = system: primary tumor, squamous cell carcinoma of the head and neck; experiment: FDG-PET tumor glucose uptake (Tglu); type: in vivo, human
# Protocol: FDG-PET was performed at baseline using a standard clinical whole-body protocol, in which the head and neck area was scanned one hour after intravenous injection of 5 MBq/kg body weight FDG. Baseline ACE and FDG scans were performed on the same or adjacent days.
# Whole-body scanning was performed one hour after intravenous injection of 5 MBq/kg body weight FDG. Six patients were examined by PET/CT and four patients were studied by PET alone. The patients were instructed to remain recumbent and avoid voicing and other uses of neck muscles during the uptake period.
# Tumor glucose uptake (Tglu) was measured from the FDG data as standard uptake values (SUV), determined by the radioactivity concentration of the tumor ROI, divided by injected activity per gram body weight.
smiles,measurement,setting,value
"C[11C](=O)O [ACE, 1-[^11C]-Acetate]",OXm values in myocardium,[1],0.05 to 0.07 min⁻¹
same,"OXm, Mean ± SE","[2]; CR group, 15 Gy, N=4",0.0142 min⁻¹
same,"OXm, Mean ± SE","[2]; CR group, 30 Gy, N=4",0.0144 min⁻¹
same,"OXm, Mean ± SE","[2]; CR group, 55 Gy, N=5",0.0140 min⁻¹
same,"OXm, Mean ± SE","[2]; CR group, Baseline, N=6",0.0122 min⁻¹
same,"OXm, Mean ± SE","[2]; PR group, 30 Gy, N=3",0.0126 min⁻¹
same,"OXm, Mean ± SE","[2]; PR group, 55 Gy, N=3",0.0110 min⁻¹
same,"OXm, Mean ± SE","[2]; PR group, Baseline, N=3",0.0065 min⁻¹
same,mean of simultaneous rF measurements,[3]; 23 scans with absolute quantification,5.87±0.39
same,"absolute quantification of tumor perfusion (absolute ACE extraction rate), mean","[3]; 23 scans, arterial input from left ventricular blood pool imaging",0.47 mL/min/mL and 0.47±0.01 mL/min/mL
same,"rF, Mean ± SE","[3]; CR group, 15 Gy",7.87
same,"rF, Mean ± SE","[3]; CR group, 30 Gy",7.29
same,"rF, Mean ± SE","[3]; CR group, 55 Gy",5.00
same,"rF, Mean ± SE","[3]; CR group, Baseline",5.68
same,"rF, Mean ± SE","[3]; PR group, 30 Gy",6.61
same,"rF, Mean ± SE","[3]; PR group, 55 Gy",4.51
same,"rF, Mean ± SE","[3]; PR group, Baseline",6.42
same,extraction rate in cerebellum (reference region),[3]; all patients,0.08±0.03 mL/min/mL
same,primary tumor rF (relative perfusion),"[3]; individual patients (CR and PR), 15 Gy",6.93 and 5.00 and 8.22 and 7.07 and 9.25
same,primary tumor rF (relative perfusion),"[3]; individual patients (CR and PR), 30 Gy",8.51 and 7.39 and 8.48 and 3.95 and 8.06 and 6.54 and 6.05
same,primary tumor rF (relative perfusion),"[3]; individual patients (CR and PR), 55 Gy",5.78 and 5.00 and 6.34 and 2.20 and 2.81 and 7.76 and 3.64
same,"primary tumor rF (relative perfusion, tumor/cerebellum initial peak retention)","[3]; individual patients (CR and PR), Baseline",4.10 and 7.63 and 6.47 and 5.17 and 6.26 and 4.90 and 3.96 and 5.91 and 8.93
"OC[C@H]1OC(O)[C@H]([18F])[C@@H](O)[C@@H]1O (stereo partly drawn) [FDG, ^18F-fluoro-2-deoxy-D-glucose]","Tglu (tumor glucose uptake, standard uptake value)","[4]; individual patients, baseline FDG-PET, one hour after i.v. 5 MBq/kg FDG",4.6 SUV and 13.4 SUV and 8.5 SUV and 6.8 SUV and 4.9 SUV and 16.3 SUV and 13.8 SUV and 3.9 SUV and 26.1 SUV
same,"Tglu, all primary tumors","[4]; nine patients, baseline",10.9±2.4 SUV
